{"source": "patent US20080313751A1", "about": "“Method by Using Human or Mice-Isg12 to Develop and Prepare Drugs and Single Nucleotide Polymorphism in the Isg12 Gene for Diagnostic Use” (priority 2005, published 2008)", "system": "NR4A1", "experiment": "Subcellular (cytosol/nucleus) distribution of NR4A1 with overexpressed ISG12", "format": "cell-based, human", "settings": "EGFP-tagged NR4A1 and myc-tagged ISG12 overexpressed; data not shown", "excerpt": "In order to quantify the effect of ISG12 on the cellular localization of NR4A1, the inventors analyzed the distribution of NR4A1 between the cytosol and the nucleus by separating sub-cellular fractions of 293 cells in which EGFP-tagged NR4A1 was overexpressed in the absence or presence of myc-tagged ISG12. In the presence of ISG12 20.8±7.4% (average±SD from 4 experiments; p<0.05) more NR4A1 was found in the cytosol as in the absence of ISG12. […] A representative example is given (n=3).\nWhen the same experiments were performed with an EGFP-tagged NR4A1 construct (AA248-580) that cannot be exported from the nucleus^24 no influence of ISG12 on subcellular distribution of that construct was seen (FIG. 5). Similarly, the effect of ISG12 on full length NR4A1 was impaired in the presence of leptomycin B that inhibits nuclear export (data not shown).\nHuman embryonic kidney 293 cells were grown in 6-wells to sub-confluence and then transfected with EGFP-NR4A1 and mycISG12 together or separately. Cell fractionation was performed 30 hours after transfection, using MS buffer (210 mM mannitol, 70 mM sucrose, 5 mM Tris-HCl, pH 7.5 and 1 mM EDTA) containing 1% protease inhibitor cocktail. After homogenizing the cells with a 27 gauge needle 10 times, samples were spun at 1300×g for 10 minutes at 4° C. to pellet the nuclei. […]"}
{"compound": "CCC(=C/[C@H](C)C/C=C/C(C)=C/[C@@H](C)C(=O)[C@@H](C)[C@H](O)[C@@H](C)C/C(C)=C/C(=O)O)/C=C/[C@@H]1OC(=O)C=C[C@@H]1C", "note": "[leptomycin B]", "values": [{"measurement": "effect of ISG12 on full length NR4A1 (nuclear export / subcellular distribution) in the presence of the substance", "result": "impaired"}]}
